In US8541210B2, “Producing eicosapentaenoic acid (EPA) from biodiesel-derived crude glycerol” (Virginia Tech Intellectual Properties, Inc., priority 2008, dated 2013):

What was measured:
[1] = system: P. irregulare; assay: Effects of methanol on fungal growth; format: cell-based, Pythium irregulare; details: 20 g/L pure glycerol spiked with 2, 4, and 8 g/L methanol; filter-sterilised; spores inoculated
From the text: The crude glycerol used in this work contained ˜12% (w/w) methanol. […] To study the “true” effects of methanol on fungal growth and EPA production, we prepared a medium containing 20 g/L pure glycerol spiked with 2, 4, and 8 g/L methanol. The medium was then passed through a 0.2 μm filter before fungal spores were inoculated. […] The result clearly indicated the negative effects of methanol on growth and EPA production of P. irregulare.

[2] = system: Pythium irregulare (ATCC 10951); assay: Growth and EPA production of P. irregulare with glucose, pure glycerol or crude glycerol as carbon source; format: cell-based; details: FIG. 1A; substrate around 20 g/L

Row | SMILES | growth in methanol-containing medium [1] | cell growth [2]
1 | CO [methanol] | did not observe any growth | –
2 | OCC(O)CO [Pure glycerol, glycerol] | – | supported cell growth
